{"source": "patent US10538442B2", "about": "“Water treatment” (priority 2015, dated 2020)", "key": {"[1]": {"tested_on": "Enterobacter aerogenes", "test": "Log 10 reduction of viable count of facultative anaerobic bacterium in dosed suspension (serial dilution into anaerobic acid producing media vials)", "assay_type": "cell-based", "details": "for Log 10 Reduction Facultative Anaerobes: TDS 30,000 mg l^-1, 6 = complete kill; for effectiveness against aerobes (in words): short contact times, summary of Table 1, combination compared with chlorine dioxide alone", "experimental": "(§1) A suspension of Desulfovibrio vulgaris plus Enterobacter aerogenes bacteria containing from 1×10^5 to 1×10^6 cells/mL was prepared in sterile pH 8 phosphate buffer containing sodium chloride to give the desired total dissolved solids (TDS) concentration. Aliquots of this suspension were dosed with the indicated concentrations of the compounds (a) and (b) with the concentrations being measured as ppm by weight of the stated composition in the dosed suspension. The mixtures were allowed to stand at room temperature. At the designated contact times, each mixture was sampled to determine the total number of viable cells of both Desulfovibrio vulgaris and Enterobacter aerogenes by serial 10-fold dilution into API RP 38 media vials and anaerobic acid producing media vials, respectively. The vials were incubated at 37° C. for 72 hours. Results were recorded as log10 reduction in the viable count versus the control.\n(§2) Aqueous media inoculated with anaerobe and aerobe culture and having a TDS of 30,000 mg l^−1 was treated with treatment agents comprising: (i) tri n-butyl n-tetradecyl phosphonium chloride (TTPC); (ii) chlorine dioxide; or (ill) a combination of TTPC and chlorine dioxide.\n(§3) TTPC was used in the form of Bellacide 350, an aqueous composition of TTPC and water consisting of water and 50% by weight of TTPC available from BWA Water Additives.\n(§4) Chlorine dioxide was used in the form of CDG Solution 3000 a 0.3% aqueous solution of chlorine dioxide available from CDG Environmental, LLC.\n(§5) The efficacy of the treatment agents was evaluated by measuring the Log 10 Reduction of the anaerobic bacterium Desulfovibrio vulgaris and the facultative anaerobic bacterium Enterobacter aerogenes after contact times of 10 minutes, 30 minutes and 60 minutes as detailed in Table 1. For TTPC the stated ppm value relates to the amount of TTPC added (active). For the chlorine dioxide the stated ppm relates to the amount of free residual of chlorine dioxide."}, "[2]": {"tested_on": "Desulfovibrio vulgaris", "test": "Log 10 reduction of viable count of anaerobic bacterium in dosed suspension (serial dilution into API RP 38 media vials)", "assay_type": "cell-based", "details": "for Log 10 Reduction Anaerobes: TDS 30,000 mg l^-1, 5 = complete kill; for effectiveness against anaerobes (in words): short contact times, summary of Table 1, combination compared with chlorine dioxide alone", "experimental": "as §1, §2, §3, §4, §5"}, "[3]": {"details": "contact time 10 minutes, TTPC 3.125 ppm active"}, "[4]": {"details": "contact time 10 minutes, TTPC 6.25 ppm active"}, "[5]": {"details": "contact time 30 minutes, TTPC 3.125 ppm active"}, "[6]": {"details": "contact time 30 minutes, TTPC 6.25 ppm active"}, "[7]": {"details": "contact time 60 minutes, TTPC 3.125 ppm active"}, "[8]": {"details": "contact time 60 minutes, TTPC 6.25 ppm active"}, "[9]": {"details": "contact time 10 minutes, chlorine dioxide 0.25 ppm free residual"}, "[10]": {"details": "contact time 10 minutes, chlorine dioxide 0.5 ppm free residual"}, "[11]": {"details": "contact time 30 minutes, chlorine dioxide 0.25 ppm free residual"}, "[12]": {"details": "contact time 30 minutes, chlorine dioxide 0.5 ppm free residual"}, "[13]": {"details": "contact time 60 minutes, chlorine dioxide 0.25 ppm free residual"}, "[14]": {"details": "contact time 60 minutes, chlorine dioxide 0.5 ppm free residual"}}, "data": [{"smiles": "CCCCCCCCCCCCCC[P+](CCCC)(CCCC)CCCC.[Cl-]", "note": "[TTPC, tri n-butyl n-tetradecyl phosphonium chloride]", "values": [{"measurement": "Log 10 Reduction Facultative Anaerobes", "setting": "[1]; [3]", "value": 0}, {"measurement": "Log 10 Reduction Facultative Anaerobes", "setting": "[1]; [4]", "value": 0}, {"measurement": "Log 10 Reduction Facultative Anaerobes", "setting": "[1]; [5]", "value": 0}, {"measurement": "Log 10 Reduction Facultative Anaerobes", "setting": "[1]; [6]", "value": 1}, {"measurement": "Log 10 Reduction Facultative Anaerobes", "setting": "[1]; [7]", "value": 0}, {"measurement": "Log 10 Reduction Facultative Anaerobes", "setting": "[1]; [8]", "value": 1}, {"measurement": "effectiveness against aerobes (in words)", "setting": "[1]", "value": "ineffective"}, {"measurement": "Log 10 Reduction Anaerobes", "setting": "[2]; [3]", "value": 0}, {"measurement": "Log 10 Reduction Anaerobes", "setting": "[2]; [4]", "value": 0}, {"measurement": "Log 10 Reduction Anaerobes", "setting": "[2]; [5]", "value": 0}, {"measurement": "Log 10 Reduction Anaerobes", "setting": "[2]; [6]", "value": 2}, {"measurement": "Log 10 Reduction Anaerobes", "setting": "[2]; [7]", "value": 0}, {"measurement": "Log 10 Reduction Anaerobes", "setting": "[2]; [8]", "value": 5}, {"measurement": "effectiveness against anaerobes (in words)", "setting": "[2]", "value": "ineffective"}]}, {"smiles": "[O][Cl+][O-]", "note": "[chlorine dioxide]", "values": [{"measurement": "Log 10 Reduction Facultative Anaerobes", "setting": "[1]; [9]", "value": 3}, {"measurement": "Log 10 Reduction Facultative Anaerobes", "setting": "[1]; [10]", "value": 6}, {"measurement": "Log 10 Reduction Facultative Anaerobes", "setting": "[1]; [11]", "value": 3}, {"measurement": "Log 10 Reduction Facultative Anaerobes", "setting": "[1]; [12]", "value": 6}, {"measurement": "Log 10 Reduction Facultative Anaerobes", "setting": "[1]; [13]", "value": 3}, {"measurement": "Log 10 Reduction Facultative Anaerobes", "setting": "[1]; [14]", "value": 6}, {"measurement": "effectiveness against aerobes (in words)", "setting": "[1]", "value": "effective"}, {"measurement": "Log 10 Reduction Anaerobes", "setting": "[2]; [9]", "value": 3}, {"measurement": "Log 10 Reduction Anaerobes", "setting": "[2]; [10]", "value": 4}, {"measurement": "Log 10 Reduction Anaerobes", "setting": "[2]; [11]", "value": 3}, {"measurement": "Log 10 Reduction Anaerobes", "setting": "[2]; [12]", "value": 5}, {"measurement": "Log 10 Reduction Anaerobes", "setting": "[2]; [13]", "value": 3}, {"measurement": "Log 10 Reduction Anaerobes", "setting": "[2]; [14]", "value": 5}, {"measurement": "effectiveness against anaerobes (in words)", "setting": "[2]", "value": "effective"}]}]}
